These results are taken from US6407042B1 (Monsanto Technology LLC, priority 1996, dated 2002).

For assay [1], the system named is Prickly sida (Sida spinosa, SIDSP). As to the kind of experiment: Greenhouse test of herbicidal effectiveness (percent inhibition) on prickly sida. It is filed as in vivo. Conditions: for % Inhibition SIDSP: evaluation 10 days after application. The source says: (§1) The herbicidal effectiveness data set forth herein report “inhibition” as a percentage following a standard procedure in the art which reflects a visual assessment of plant mortality and growth reduction by comparison with untreated plants, made by technicians specially trained to make and record such observations. In all cases, a single technician makes all assessments of percent inhibition within any one experiment or trial. Such measurements are relied upon and regularly reported by Monsanto Company in the course of its herbicide business.
(§2) The following procedure was used for testing compositions of the Examples to determine herbicidal effectiveness, except where otherwise indicated.
(§3) Seeds of the plant species indicated were planted in 85 mm square pots in a soil mix which was previously steam sterilized and prefertilized with a 14-14-14 NPK slow release fertilizer at a rate of 3.6 kg/m3. The pots were placed in a greenhouse with subirrigation. About one week after emergence, seedlings were thinned as needed, including removal of any unhealthy or abnormal plants. to create a uniform series of test pots.
(§4) The plants were maintained for the duration of the test in the greenhouse where they received a minimum of 14 hours of light per day. If natural light was insufficient to achieve the daily requirement, artificial light with an intensity of approximately 475 microeinsteins was used to make up the difference. Exposure temperatures were not precisely controlled but averaged about 27° C. during the day and about 18° C. during the night. Plants were sub-irrigated throughout the test to ensure adequate soil moisture levels.
(§5) A set of pots was left untreated as a reference against which effects of the treatments could later be evaluated.
(§6) Application of glyphosate compositions was made by spraying with a track sprayer fitted with a 9501E nozzle calibrated to deliver a spray volume of 93 liters per hectare (l/ha) at a pressure of 166 kilopascals (kPa). After treatment, pots were returned to the greenhouse until ready for evaluation.
(§7) Treatments were made using dilute aqueous compositions. These could be prepared as spray compositions directly from their ingredients, or by dilution with water of preformulated concentrate compositions.
(§8) For evaluation of herbicidal effectiveness, all plants in the test were examined by a single practiced technician, who recorded percent inhibition, a visual measurement of the effectiveness of each treatment by comparison with untreated plants.

Assay [2] deals with Velvetleaf (Abutilon theophrasti, ABUTH). As to the kind of experiment: Greenhouse test of herbicidal effectiveness (percent inhibition) on velvetleaf. It is filed as in vivo.
Source text: as §1, §2, §3, §4, §5, §6, §7, §8

Assay [3] has as its system Japanese millet (Echinochloa crus-galli, ECHCF). Kind of assay: Greenhouse test of herbicidal effectiveness (percent inhibition) on Japanese millet. The class given is in vivo.
Source text: as §1, §2, §3, §4, §5, §6, §7, §8

In assay [4] the test system is ABUTH and ECHCF. As to the kind of experiment: Greenhouse test, herbicidal effectiveness overall on both species of the Example. The class given is in vivo, Abutilon theophrasti, Echinochloa crus-galli. The following applies: post-emergence foliar spray 93 l/ha, comparison as worded in the discussion of the Example. The protocol: The following procedure was used for testing compositions of the Examples to determine herbicidal effectiveness, except where otherwise indicated. […] The pots were placed in a greenhouse with subirrigation. About one week after emergence, seedlings were thinned as needed, including removal of any unhealthy or abnormal plants. to create a uniform series of test pots. The plants were maintained for the duration of the test in the greenhouse where they received a minimum of 14 hours of light per day. […] Exposure temperatures were not precisely controlled but averaged about 27° C. during the day and about 18° C. during the night. Plants were sub-irrigated throughout the test to ensure adequate soil moisture levels. Pots were assigned to different treatments in a fully randomized experimental design with 3 replications. A set of pots was left untreated as a reference against which effects of the treatments could later be evaluated. […] After treatment, pots were returned to the greenhouse until ready for evaluation. Treatments were made using dilute aqueous compositions. […] For evaluation of herbicidal effectiveness, all plants in the test were examined by a single practiced technician, who recorded percent inhibition, a visual measurement of the effectiveness of each treatment by comparison with untreated plants.

Assay [5] relates to Common lambsquarter (Chenopodium album, CHEAL). Kind of assay: Greenhouse test of herbicidal effectiveness (percent inhibition) on common lambsquarter. It is filed as in vivo. The following applies: Example 20; 18 days after application.
Source text: as §2, §3
(§9) The plants were maintained for the duration of the test in the greenhouse where they received a minimum of 14 hours of light per day. […]
as §5
(§10) Application of glyphosate compositions was made by spraying with a track sprayer fitted with a 9501E nozzle calibrated to deliver a spray volume of 93 liters per hectare (l/ha) at a pressure of 166 kilopascals (kPa). After treatment, pots were returned to the greenhouse until ready for evaluation. […]
as §8

For assay [6], the system named is Hemp sesbania (Sesbania exaltata, SEBEX). Kind of assay: Greenhouse test of herbicidal effectiveness (percent inhibition) on hemp sesbania. The class given is in vivo. Conditions: Example 18; 21 days after application.
Source text: as §2, §3, §9, §5, §10, §8

[7] abbreviates: acifluorfen rate 25 g a.i./ha, evaluation 10 days after application.
Where [8] appears, read: acifluorfen rate 50 g a.i./ha, evaluation 10 days after application.
Setting [9] is: acifluorfen rate 100 g a.i./ha, evaluation 10 days after application.
Where [10] appears, read: acifluorfen rate 200 g a.i./ha, evaluation 10 days after application.
The mark [11] stands for this setting: dicamba rate 25 g a.i./ha, evaluation 17 days after application.
[12] abbreviates: dicamba rate 50 g a.i./ha, evaluation 17 days after application.
Setting [13] is: dicamba rate 100 g a.i./ha, evaluation 17 days after application.
Setting [14] is: dicamba rate 200 g a.i./ha, evaluation 17 days after application.

With `O=C(O)c1cc(Oc2ccc(C(F)(F)F)cc2Cl)ccc1[N+](=O)[O-]` [Acifluorfen (technical)], the “% Inhibition SIDSP” value in assay [1] (acifluorfen rate 25 g a.i./ha) is 15%; in assay [1] (acifluorfen rate 50 g a.i./ha), 17%; in assay [1] (acifluorfen rate 100 g a.i./ha), 35%; in assay [1] (acifluorfen rate 200 g a.i./ha), 40%. For the same compound, the “% Inhibition ABUTH” value turned out to be 20% in assay [2] (setting [7]), 32% in assay [2] (setting [8]), 52% in assay [2] (setting [9]) and 62% in assay [2] (setting [10]). Also, the “% Inhibition ECHCF” value in assay [3] (setting [7]) was 2%; in assay [3] (setting [8]) it was 7%; in assay [3] (setting [9]), 18%; in assay [3] (setting [10]) it was 35%.
As to `COc1c(Cl)ccc(Cl)c1C(=O)O` [Dicamba (technical)], the “% Inhibition ABUTH” value in assay [2] (setting [11]) is recorded as 47%; in assay [2] (setting [12]) it was 63%; in assay [2] (setting [13]), 82%; in assay [2] (setting [14]) it was 93%. The “% Inhibition ECHCF” value in assay [3] (setting [11]) is listed as 0%; in assay [3] (setting [12]), 0%; in assay [3] (setting [13]), 0%; in assay [3] (setting [14]), 5%.
On to `COC(=O)NS(=O)(=O)c1ccc(N)cc1` [Asulam (technical)], for which the “% Inhibition ECHCF” value in assay [3] (asulam rate 200 g a.i./ha, evaluation 14 days after application) stood at 12%.
A word on the inhibition: it is the drop in the measured response relative to a control, in per cent. A high value points to strong suppression. Take `C[n+]1ccc(-c2cc[n+](C)cc2)cc1` [Paraquat dichloride]: the inhibition at 25 g/ha is 55% in assay [1] (Sida spinosa, 288 h, Table 82, paraquat rate 25 g a.i./ha, evaluation 12 days after application); 50% in assay [2] (Abutilon theophrasti, 288 h, Table 82, paraquat rate 25 g a.i./ha, evaluation 12 days after application); 83% in assay [3] (Echinochloa crus-galli, 288 h, Table 82, paraquat rate 25 g a.i./ha, evaluation 12 days after application). For the same compound, the inhibition at 50 g/ha in assay [1] (Sida spinosa, 288 h, Table 82, paraquat rate 50 g a.i./ha, evaluation 12 days after application) is 60%; in assay [2] (Abutilon theophrasti, 288 h, Table 82, paraquat rate 50 g a.i./ha, evaluation 12 days after application) it was 57%; in assay [3] (Echinochloa crus-galli, 288 h, Table 82, paraquat rate 50 g a.i./ha, evaluation 12 days after application), 78%. The inhibition at 100 g/ha in assay [1] (Sida spinosa, 288 h, Table 82, paraquat rate 100 g a.i./ha, evaluation 12 days after application) worked out at 69%; in assay [2] (Abutilon theophrasti, 288 h, Table 82, paraquat rate 100 g a.i./ha, evaluation 12 days after application) it was 73%; in assay [3] (Echinochloa crus-galli, 288 h, Table 82, paraquat rate 100 g a.i./ha, evaluation 12 days after application) it was 84%. In addition, the inhibition at 200 g/ha in assay [1] (Sida spinosa, 288 h, Table 82, paraquat rate 200 g a.i./ha, evaluation 12 days after application) stood at 99%; in assay [2] (Abutilon theophrasti, 288 h, Table 82, paraquat rate 200 g a.i./ha, evaluation 12 days after application), 85%; in assay [3] (Echinochloa crus-galli, 288 h, Table 82, paraquat rate 200 g a.i./ha, evaluation 12 days after application), 95%.
For ceteareth-30, the “herbicidal effectiveness overall (ABUTH and ECHCF), result in words” value in assay [4] is given as “more effective additives for Formulation B than steareth-10”.
For the compound `O=C(O)CNCP(=O)(O)O` [glyphosate, N-phosphonomethylglycine], the “herbicidal activity on CHEAL, result in words” value in assay [5] is given as “very weak”. Moreover, in assay [6], the “herbicidal activity on SEBEX, result in words” value was “extremely weak”.
As to `C[N+](C)(C)CCCNS(=O)(=O)C(F)(F)C(F)(F)C(F)(F)C(F)(F)C(F)(F)C(F)(F)C(F)(F)C(F)(F)F.[I-]` [Fluorad FC-135, 3-(((heptadecafluorooctyl)sulfonyl)amino)-N,N,N-trimethyl-1-propaminium iodide], the “concentration of Fluorad FC-135 added in tank-mix to Formulation B to bring its herbicidal performance up to that of Formulation C” value in assay [1] (Example 21, SIDSP, evaluation 20 days after application) is around 0.1%; in assay [2] (Example 21, ABUTH, evaluation 20 days after application), around 0.02%; in assay [3] (Example 21, ECHCF, evaluation 20 days after application), “approximately 0.25%”. The optimum adjuvant concentration in assay [2] (Example 25, tank-mix adjuvant for glyphosate as Formulation B, ABUTH, 21 days after application) is 0.2%; in assay [3] (Example 25, tank-mix adjuvant for glyphosate as Formulation B, ECHCF, 21 days after application) it was 0.2%.
For the compound Steareth-20, the “herbicidal effectiveness overall (ABUTH and ECHCF), result in words” value in assay [4] is recorded as “more effective additives for Formulation B than steareth-10”.
